Biological target: T1, hROMK (hKir1.1) (Homo sapiens, UniProt P48048)
T1 construct: expressed in transfected cells
T1 sequence (P48048 1-391): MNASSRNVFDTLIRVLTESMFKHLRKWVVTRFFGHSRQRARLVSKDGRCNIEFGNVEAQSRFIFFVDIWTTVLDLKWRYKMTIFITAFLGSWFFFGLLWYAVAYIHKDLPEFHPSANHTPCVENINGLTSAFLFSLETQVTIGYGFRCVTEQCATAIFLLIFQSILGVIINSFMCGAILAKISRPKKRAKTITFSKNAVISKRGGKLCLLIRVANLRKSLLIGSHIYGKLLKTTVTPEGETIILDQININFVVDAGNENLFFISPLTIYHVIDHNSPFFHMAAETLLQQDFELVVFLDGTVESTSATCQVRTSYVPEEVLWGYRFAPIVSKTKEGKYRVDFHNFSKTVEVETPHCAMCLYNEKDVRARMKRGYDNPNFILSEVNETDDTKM
Experiment: Thallium Flux Assay (ROMK channel functional thallium flux, FLIPR-Tetra)
Type: cell-based
Conditions: HEK293 cells stably expressing hROMK (hKir1.1); 30 min compound incubation
Summary of the method: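 Thallium flux read by FluxOR fluorescence ([…]) for ~10 min after adding 3 mM Tl+/0.3 mM K+ final. Stable HEK-hKir1.1 cells were dye-loaded 90 min, exposed to compound 30 min at room temperature in ouabain/probenecid buffer; IC50 relative to a 3 μM control inhibitor.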

CC1=C(N2C(=O)C3(CCN(C[C@H](O)c4ccc(-n5cnnn5)cc4F)CC3)CC2C)COC1=O (single isomer, unassigned) [Example 141]
IC50: 30 nM

CC1=C(N2C(=O)C3(CCN(C[C@@H](O)c4ccc(-n5cnnn5)cc4F)CC3)CC2C)COC1=O (single isomer, unassigned) [Example 142]
IC50: 30 nM

COC1CN(C2=C(C)C(=O)OC2)C(=O)C12CC1CCC(C2)N1C[C@H](O)c1ccc(-n2cnnn2)nc1 (single isomer, unassigned) [Example 159]
IC50: 40 nM

COC1CN(C2=C(C)C(=O)OC2)C(=O)C12CC1CCC(C2)N1C[C@H](O)c1cnc(-n2cnnn2)cn1 (single isomer, unassigned) [Example 160]
IC50: 110 nM

COC1CN(C2=C(C)C(=O)OC2)C(=O)C12CC1CCC(C2)N1C[C@H](O)c1ccc(-n2cnnn2)nc1 (single isomer, unassigned) [Example 161]
IC50: 30 nM

COC1CN(C2=C(C)C(=O)OC2)C(=O)C12CC1CCC(C2)N1C[C@H](O)c1cnc(-n2cnnn2)cn1 (single isomer, unassigned) [Example 162]
IC50: 40 nM

COC1CN(C[C@H](O)c2ccc(-n3cnnn3)nc2)CCC12CCN(C1=C(C)C(=O)OC1)C2=O (single isomer, unassigned) [Example 170]
IC50: 40 nM

COC1CN(C[C@@H](O)c2ccc(-n3cnnn3)nc2)CCC12CCN(C1=C(C)C(=O)OC1)C2=O (single isomer, unassigned) [Example 171]
IC50: 60 nM

COC1CN(C[C@H](O)c2cnc(-n3cnnn3)cn2)CCC12CCN(C1=C(C)C(=O)OC1)C2=O (single isomer, unassigned) [Example 172]
IC50: 180 nM

COC1CN(C[C@@H](O)c2cnc(-n3cnnn3)cn2)CCC12CCN(C1=C(C)C(=O)OC1)C2=O (single isomer, unassigned) [Example 173]
IC50: 770 nM

COC1CN(C[C@H](O)c2ccc(-n3cnnn3)nc2)CCC12CCN(C1=C(C)C(=O)OC1)C2=O (single isomer, unassigned) [Example 176]
IC50: 90 nM

COC1CN(C[C@@H](O)c2ccc(-n3cnnn3)nc2)CCC12CCN(C1=C(C)C(=O)OC1)C2=O (single isomer, unassigned) [Example 177]
IC50: 70 nM

COC1CN(C[C@H](O)c2cnc(-n3cnnn3)cn2)CCC12CCN(C1=C(C)C(=O)OC1)C2=O (single isomer, unassigned) [Example 178]
IC50: 790 nM

COC1CN(C[C@@H](O)c2cnc(-n3cnnn3)cn2)CCC12CCN(C1=C(C)C(=O)OC1)C2=O (single isomer, unassigned) [Example 179]
IC50: 330 nM

CC1=C(N2CCC3(CCN(C[C@H](O)c4ccc(-n5cnnn5)nn4)CC3F)C2=O)COC1=O (single isomer, unassigned) [Example 183]
IC50: 80 nM

CC1=C(N2CCC3(CCN(C[C@@H](O)c4ccc(-n5cnnn5)nn4)CC3F)C2=O)COC1=O (single isomer, unassigned) [Example 184]
IC50: 70 nM

CC1=C(N2CCC3(CCN(C[C@H](O)c4nnc(-n5cnnn5)cc4C)CC3F)C2=O)COC1=O (single isomer, unassigned) [Example 185]
IC50: 50 nM

CC1=C(N2CCC3(CCN(C[C@@H](O)c4nnc(-n5cnnn5)cc4C)CC3F)C2=O)COC1=O (single isomer, unassigned) [Example 186]
IC50: 70 nM

CC1=C(N2CCC3(CCN(C[C@H](O)c4ccc(-n5cnnn5)nc4)CC3F)C2=O)COC1=O (single isomer, unassigned) [Example 192]
IC50: 10 nM

CC1=C(N2CCC3(CCN(C[C@@H](O)c4ccc(-n5cnnn5)nc4)CC3F)C2=O)COC1=O (single isomer, unassigned) [Example 193]
IC50: 20 nM

CC1=C(N2CCC3(CCN(C[C@H](O)c4ccc(-n5cnnn5)nc4)CC3F)C2=O)COC1=O (single isomer, unassigned) [Example 194]
IC50: 10 nM

CC1=C(N2CCC3(CCN(C[C@@H](O)c4ccc(-n5cnnn5)nc4)CC3F)C2=O)COC1=O (single isomer, unassigned) [Example 195]
IC50: 10 nM

CC1=C(N2CCC3(CCN(C[C@H](O)c4ccc(-n5cnnn5)nn4)CC3F)C2=O)COC1=O (single isomer, unassigned) [Example 196]
IC50: 40 nM

CC1=C(N2CCC3(CCN(C[C@@H](O)c4ccc(-n5cnnn5)nn4)CC3F)C2=O)COC1=O (single isomer, unassigned) [Example 197]
IC50: 30 nM

CC1=C(N2CCC3(CCN(C[C@H](O)c4nnc(-n5cnnn5)cc4C)CC3F)C2=O)COC1=O (single isomer, unassigned) [Example 198]
IC50: 10 nM

CC1=C(N2CCC3(CCN(C[C@@H](O)c4nnc(-n5cnnn5)cc4C)CC3F)C2=O)COC1=O (single isomer, unassigned) [Example 199]
IC50: 20 nM

CC1=C(N2CCC3(CCN(C[C@H](O)c4ccc(-n5cnnn5)nc4C)CC3O)C2=O)COC1=O (single isomer, unassigned) [Example 202]
IC50: 60 nM

CC1=C(N2CCC3(CCN(C[C@H](O)c4ccc(-n5cnnn5)nc4C)CC3O)C2=O)COC1=O (single isomer, unassigned) [Example 203]
IC50: 150 nM

O=C1C=C(N2C(=O)C3(CCN(C[C@H](O)c4cnc(-n5cnnn5)cn4)CC3)CC2CF)CO1 (single isomer, unassigned) [Example 204]
IC50: 300 nM

O=C1C=C(N2C(=O)C3(CCN(C[C@H](O)c4cnc(-n5cnnn5)cn4)CC3)CC2CF)CO1 (single isomer, unassigned) [Example 205]
IC50: 30 nM

CC1OC(=O)C=C1N1C(=O)C2(CCN(C[C@H](O)c3ccc(-n4cnnn4)nc3)CC2)C[C@@H]1C (single isomer, unassigned) [Example 228]
IC50: 20 nM

CC1OC(=O)C=C1N1C(=O)C2(CCN(C[C@H](O)c3ccc(-n4cnnn4)nc3)CC2)C[C@@H]1C (single isomer, unassigned) [Example 229]
IC50: 280 nM

CC1OC(=O)C=C1N1C(=O)C2(CCN(C[C@H](O)c3ccc(-n4cnnn4)nc3)CC2)C[C@H]1C (single isomer, unassigned) [Example 230]
IC50: 80 nM

CC1OC(=O)C=C1N1C(=O)C2(CCN(C[C@H](O)c3ccc(-n4cnnn4)nc3)CC2)C[C@H]1C (single isomer, unassigned) [Example 231]
IC50: 1530 nM

CC1CC2(CCN(CCc3cnc(-n4cnnn4)cn3)CC2)C(=O)N1C1=CC(=O)OC1 (single isomer, unassigned) [Example 242, 3-methyl-1-oxo-2-(5-oxo-2,5-dihydrofuran-3-yl)-8-{2-[5-(1H-tetrazol-1-yl)pyrazin-2-yl]ethyl}-2-aza-8-azoniaspiro[4.5]decane]
IC50: 40 nM

CC1=C(N2CC(O)C3(CCN(CCc4ccc(-n5cnnn5)nn4)CC3)C2=O)COC1=O (single isomer, unassigned) [Example 243, 4-hydroxy-2-(4-methyl-5-oxo-2,5-dihydrofuran-3-yl)-1-oxo-8-{2-[6-(1H-tetrazol-1-yl)pyridazin-3-yl]ethyl}-2-aza-8-azoniaspiro[4.5]decane]
IC50: 210 nM

CC1=C(N2CC(O)C3(CCN(CCc4ccc(-n5cnnn5)nc4)CC3)C2=O)COC1=O (single isomer, unassigned) [Example 244, 4-hydroxy-2-(4-methyl-5-oxo-2,5-dihydrofuran-3-yl)-1-oxo-8-{2-[6-(1H-tetrazol-1-yl)pyridin-3-yl]ethyl}-2-aza-8-azoniaspiro[4.5]decane]
IC50: 30 nM

CC1=C(N2CC(O)C3(CCN(CCc4ccc(-n5cnnn5)nc4)CC3)C2=O)COC1=O (single isomer, unassigned) [Example 245, 4-hydroxy-2-(4-methyl-5-oxo-2,5-dihydrofuran-3-yl)-1-oxo-8-{2-[6-(1H-tetrazol-1-yl)pyridin-3-yl]ethyl}-2-aza-8-azoniaspiro[4.5]decane]
IC50: 20 nM

COC1CN(CCc2ccc(-n3cnnn3)nn2)CCC12CCN(C1=C(C)C(=O)OC1)C2=O (single isomer, unassigned) [Example 257, 6-methoxy-2-(4-methyl-5-oxo-2,5-dihydrofuran-3-yl)-8-{2-[6-(1H-tetrazol-1-yl)pyridazin-3-yl]ethyl}-2,8-diazaspiro[4.5]decan-1-one]
IC50: 100 nM

COC1CN(CCc2ccc(-n3cnnn3)nn2)CCC12CCN(C1=C(C)C(=O)OC1)C2=O (single isomer, unassigned) [Example 258, 6-methoxy-2-(4-methyl-5-oxo-2,5-dihydrofuran-3-yl)-8-{2-[6-(1H-tetrazol-1-yl)pyridazin-3-yl]ethyl}-2,8-diazaspiro[4.5]decan-1-one]
IC50: 120 nM

COC1CN(CCc2nnc(-n3cnnn3)cc2C)CCC12CCN(C1=C(C)C(=O)OC1)C2=O (single isomer, unassigned) [Example 259, 6-methoxy-2-(4-methyl-5-oxo-2,5-dihydrofuran-3-yl)-8-{2-[4-methyl-6-(1H-tetrazol-1-yl)pyridazin-3-yl]ethyl}-2,8-diazaspiro[4.5]decan-1-one]
IC50: 100 nM

COC1CN(CCc2nnc(-n3cnnn3)cc2C)CCC12CCN(C1=C(C)C(=O)OC1)C2=O (single isomer, unassigned) [Example 260, 6-methoxy-2-(4-methyl-5-oxo-2,5-dihydrofuran-3-yl)-8-{2-[4-methyl-6-(1H-tetrazol-1-yl)pyridazin-3-yl]ethyl}-2,8-diazaspiro[4.5]decan-1-one]
IC50: 120 nM

— US9765074B2, “Inhibitors of the renal outer medullary potassium channel” (Merck Sharp & Dohme Corp., priority 2013, dated 2017)
